Measurements reported in US10669268B2, “Bicyclic derivatives” (Hoffmann-La Roche Inc., priority 2012, dated 2020).

Biological target: ATX (human His-tagged) (Homo sapiens (Human), UniProt Q13822)
Test: Human ATX enzyme inhibition assay (fluorescence quenching, MR121 substrate)
Type: biochemical
Conditions: 30 nM ATX, 1 μM MR121 substrate, 30° C., pH 8.0
Method: Human ATX Enzyme Inhibition Assay
Assay working solutions were made as follows:
Assay buffer (50 mM Tris-HCl, 140 mM NaCl, 5 mM KCl, 1 mM CaCl2, 1 mM MgCl2, 0.01% Triton-X-100, pH 8.0;
MR121 substrate solution: MR121 substrate stock solution (800 μM MR121 substrate in DMSO), diluted to 2-5× final concentration in assay buffer.
10 μL of MR121 substrate solution was added (1 μM final concentration), mixed 30 times and then incubated for 15 minutes at 30° C.

| SMILES | IC50 |
| --- | --- |
| N#Cc1ccc(/C=C/C(=O)N2C[C@@H]3CN(C(=O)c4ccc5[nH]nnc5c4)C[C@H]3C2)c(F)c1 [Example 15.35] | 31 nM |
| CN(Cc1cnn[nH]1)C(=O)N1C[C@H]2CCN(C(=O)/C=C/c3ccc(OC(F)(F)F)c(F)c3)CC[C@H]2C1 [Example 15.61, (3aR,8aS)-N-((1H-1,2,3-triazol-5-yl)methyl)-6-((E)-3-(3-fluoro-4-(trifluoromethoxy)phenyl)-acryloyl)-N-methyloctahydro-pyrrolo[3,4-d]azepine-2(1H)-carboxamide] | 54 nM |
| O=C(/C=C/c1ccc(OC(F)(F)F)cc1)N1CC[C@@H]2CN(C(=O)NCCc3cnn[nH]3)C[C@@H]2CC1 [Example 9.09, (3aR,8aS)-N-(2-(1H-1,2,3-triazol-5-yl)ethyl)-6-((E)-3-(4-(trifluoromethoxy)-phenyl)acryloyl)octahydropyrrolo[3,4-d]azepine-2(1H)-carboxamide] | 162 nM |
| COc1ccc(CCC(=O)N2CC[C@@H]3CN(C(=O)c4ccc5[nH]nnc5c4)C[C@@H]3CC2)cc1F [Example 17.07, 1-((3aR,8aS)-2-(1H-benzo[d][1,2,3]triazole-5-carbonyl)octahydropyrrolo[3,4-d]azepin-6(7H)-yl)-3-(3-fluoro-4-methoxyphenyl)propan-1-one] | 43 nM |
| O=C(OCC12CC3CC(CC(C3)C1)C2)N1C[C@@H]2CN(C(=O)c3ccc4[nH]nnc4c3)C[C@@H]2C1 [Example 4.18, (3aS,6aR)-5-(1H-benzotriazole-5-carbonyl)-hexahydro-pyrrolo[3,4-c]pyrrole-2-carboxylic acid adamantan-1-ylmethyl ester] | 5620 nM |
| O=C(OCc1cc(Cl)cc(Cl)c1)N1C[C@H]2CCN(C(=O)c3ccc4[nH]nnc4c3)C[C@@H]2C1 (relative stereo) [Example 12B, trans-3,5-dichlorobenzyl 5-(1H-benzo[d][1,2,3]triazole-5-carbonyl)-hexahydro-lH-pyrrolo[3,4-c]pyridine-2(3H)-carboxylate] | 5 nM |
| O=C(OCc1cc(Cl)cc(Cl)c1)N1C[C@@H]2CCN(C(=O)c3ccc4[nH]nnc4c3)C[C@@H]2C1 (relative stereo) [Example 4.08, cis-3,5-dichlorobenzyl 5-(1H-benzo[d][1,2,3]triazole-5-carbonyl)hexahydro-1H-pyrrolo[3,4-c]pyridine-2(3H)-carboxylate] | 47 nM |
| O=C(OCc1cc(Cl)cc(Cl)c1)N1CC[C@H]2CN(C(=O)c3ccc4[nH]nnc4c3)C[C@H]2C1 (relative stereo) [Example 1.10, cis-3,5-dichlorobenzyl 2-(1H-benzo[d][1,2,3]triazole-5-carbonyl)hexahydro-1H-pyrrolo[3,4-c]pyridine-5(6H)-carboxylate] | 78 nM |
| O=C(CCc1ccc(C(F)(F)F)nc1)N1C[C@@H]2CN(C(=O)c3ccc4[nH]nnc4c3)C[C@H]2C1 [Example 15.62] | 68 nM |
| O=C(CCc1ccc(OC(F)(F)F)cc1)N1CC[C@@H]2CN(C(=O)NCCc3cnn[nH]3)C[C@@H]2CC1 [Example 17.14, (3aS,8aR)-6-[3-(4-trifluoromethoxy-phenyl)-propionyl]-octahydro-pyrrolo[3,4-d]azepine-2-carboxylic acid [2-(3H-[1,2,3]triazol-4-yl)-ethyl]-amide] | 464 nM |
| O=C(/C=C/c1ccc(F)cc1F)N1CC[C@@H]2CN(C(=O)c3ccc4[nH]nnc4c3)C[C@@H]2CC1 [Example 15.29] | 34 nM |
| N#Cc1ccc(/C=C/C(=O)N2CC[C@@H]3CN(Cc4ccc5[nH]nnc5c4)C[C@@H]3CC2)cc1 [Example 6.05] | 179 nM |
| O=C(OCc1cc(Cl)cc(Cl)c1)N1C[C@H]2CN(Cc3ccc4[nH]cnc4c3)C[C@H]2C1 [Example 6, (3aR,6aS)-3,5-Dichlorobenzyl 5-((1H-benzo[d]imidazol-5-yl)methyl)hexahydropyrrolo[3,4-c]pyrrole-2(1H)-carboxylate] | 10400 nM |
| O=C(OCc1cccc(OC(F)(F)F)c1)N1C[C@@H]2CN(C(=O)c3ccc4[nH]nnc4c3)C[C@@H]2C1 [Example 4.25, (3aS,6aR)-5-(1H-benzotriazole-5-carbonyl)-hexahydro-pyrrolo[3,4-c]pyrrole-2-carboxylic acid 3-trifluoromethoxy-benzyl ester] | 122 nM |
| O=C(OCCC1C2CC3CC(C2)CC1C3)N1C[C@@H]2CN(C(=O)c3ccc4[nH]nnc4c3)C[C@@H]2C1 (stereo partly drawn) [Example 4.16, (3aS,6aR)-5-(1H-benzotriazole-5-carbonyl)-hexahydro-pyrrolo[3,4-c]pyrrole-2-carboxylic acid 2-adamantan-2-yl-ethyl ester] | 398 nM |
| O=C(COc1ccc(OC(F)(F)F)cc1)N1CC[C@@H]2CN(C(=O)c3ccc4[nH]nnc4c3)C[C@H]2C1 (relative stereo) [Example 1.25, 1-[trans-2-(1H-benzotriazole-5-carbonyl)-octahydro-pyrrolo[3,4-c]pyridin-5-yl]-2-(4-trifluoromethoxy-phenoxy)-ethanone] | 114 nM |
| O=C(/C=C/c1ccccc1)N1CC[C@@H]2CN(C(=O)c3ccc4[nH]nnc4c3)C[C@@H]2CC1 [Example 15.15] | 156 nM |

The remaining compounds from weak to strong by IC50, led by results:

| IC50 | SMILES |
| --- | --- |
| 27 nM | O=C(COc1ccccc1-c1ccccc1)N1C[C@@H]2CN(C(=O)c3ccc4[nH]nnc4c3)C[C@H]2C1 [Example 15.88] |
| 24 nM | O=C(OCc1ccc(OC(F)(F)F)cc1)N1C[C@@H]2CN(C(=O)c3ccc4[nH]nnc4n3)C[C@H]2C1 [Example 4.42, (3aS,6aS)-5-(1H-[1,2,3]triazolo[4,5-b]pyridine-5-carbonyl)-hexahydro-pyrrolo[3,4-c]pyrrole-2-carboxylic acid 4-trifluoromethoxy-benzyl ester] |
| 19 nM | CS(=O)(=O)c1cc(Cl)cc(COC(=O)N2C[C@@H]3CN(C(=O)N4CCc5[nH]nnc5C4)C[C@H]3C2)c1 [Example 4.34, (3aS,6aS)-5-(1,4,6,7-tetrahydro-[1,2,3]triazolo[4,5-c]pyridine-5-carbonyl)-hexahydro-pyrrolo[3,4-c]pyrrole-2-carboxylic acid 3-chloro-5-methanesulfonyl-benzyl ester] |
| 14 nM | Cc1cc(OCC(=O)N2C[C@@H]3CN(C(=O)c4ccc5[nH]nnc5c4)C[C@@H]3C2)c(C(C)C)cc1Cl [Example 15.67] |
| 10 nM | O=C(/C=C/c1ccc(OC(F)(F)F)cc1)N1C[C@@H]2CN(C(=O)c3ccc4[nH]nnc4c3)C[C@H]2C1 [Example 15.24] |
| 10 nM | Cc1cc(OCC(=O)N2CC[C@@H]3CN(C(=O)c4ccc5[nH]nnc5c4)C[C@@H]3CC2)c(C(C)C)cc1Cl [Example 1.35, 1-[(3aS,8aR)-2-(1H-benzotriazole-5-carbonyl)-octahydro-pyrrolo[3,4-d]azepin-6-yl]-2-(4-chloro-2-isopropyl-5-methyl-phenoxy)-ethanone] |
| 10 nM | O=C(c1cnc(OCC(F)(F)F)c(C2CC2)c1)N1C[C@@H]2CN(C(=O)c3ccc4[nH]nnc4c3)C[C@H]2C1 [Example 19.42, ((3aS,6aS)-5-(1H-benzo[d][1,2,3]triazole-5-carbonyl)hexahydropyrrolo[3,4-c]pyrrol-2(1H)-yl)(5-cyclopropyl-6-(2,2,2-trifluoroethoxy)pyridin-3-yl)methanone] |
| 8 nM | O=C(OCc1cc(Cl)cc(Cl)c1)N1C[C@@H]2CN(C(=O)c3ccc4[nH]nnc4c3)C[C@H]2C1 [Example 4, (3aS,6aS)-3,5-Dichlorobenzyl 5-(1H-benzo[d][1,2,3]triazole-5-carbonyl)hexahydro-pyrrolo[3,4-c]pyrrole-2(1H)-carboxylate] |
| 8 nM | O=C(/C=C/c1ccc(OC(F)(F)F)cc1)N1C[C@@H]2CN(C(=O)c3ccc4[nH]nnc4c3)CC[C@H]2C1 (single isomer, unassigned) [Example 15.26] |
| 6 nM | Cc1cc(OCC(=O)N2C[C@@H]3CN(C(=O)[C@@H]4CCc5[nH]nnc5C4)C[C@H]3C2)c(C(C)C)cc1C#N [Example 19.27, 4-[2-[(3aS,6aS)-5-[(5R)-4,5,6,7-tetrahydro-1H-benzotriazole-5-carbonyl]-1,3,3a,4,6,6a-hexahydropyrrolo[3,4-c]pyrrol-2-yl]-2-oxoethoxy]-2-methyl-5-propan-2-ylbenzonitrile] |
| 6 nM | COc1ccc(/C=C/C(=O)N2CC[C@@H]3CN(C(=O)c4ccc5[nH]nnc5c4)C[C@@H]3CC2)c(C(F)(F)F)c1 [Example 1.28, (E)-1-((3aR,8aS)-2-(1H-benzo[d][1,2,3]triazole-5-carbonyl)octahydropyrrolo[3,4-d]azepin-6(7H)-yl)-3-(4-methoxy-2-(trifluoromethyl)phenyl)prop-2-en-1-one] |
| 5 nM | CS(=O)(=O)c1cc(Cl)cc(COC(=O)N2C[C@@H]3CN(C(=O)[C@@H]4CCc5[nH]nnc5C4)C[C@H]3C2)c1 [Example 4.60, (3aS,6aS)-5-((R)-4,5,6,7-tetrahydro-1H-benzotriazole-5-carbonyl)-hexahydro-pyrrolo[3,4-c]pyrrole-2-carboxylic acid 3-chloro-5-methanesulfonyl-benzyl ester] |
| 3 nM | N#Cc1ccc(/C=C/C(=O)N2CC[C@@H]3CN(C(=O)c4ccc5[nH]nnc5c4)C[C@@H]3CC2)c(F)c1 [Example 15.34] |
| 2 nM | CC(C)(C)c1cc(C#N)ccc1OCC(=O)N1C[C@@H]2CN(C(=O)[C@@H]3CCc4[nH]nnc4C3)C[C@H]2C1 [Example 19.31, 4-[2-[(3aS,6aS)-5-[(5R)-4,5,6,7-tetrahydro-1H-benzotriazole-5-carbonyl]-1,3,3a,4,6,6a-hexahydropyrrolo[3,4-c]pyrrol-2-yl]-2-oxoethoxy]-3-tert-butylbenzonitrile] |
